SMILES strings stand for the structures.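 All cell lines were grown in 96-well plates and treated with compound for 48 hours. Definition used: TGI = concentration required for complete inhibition of growth.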

Common to all, as to assay: NCI tumour cell line growth inhibition, 48 h
Assay [1] concerns DMS 273 small cell lung.
The subject of assay [2] is EKVX NSCLC.
Assay [3] has as its system HOP-18 NSCLC.
Assay [4] concerns M14 melanoma.
The test system of assay [5] is MALME-3M melanoma.
Assay [6] concerns NCI-H23 lung.
For assay [7], the system named is RPMI-8226 leukemia.
The subject of assay [8] is SK-MEL-2 melanoma.
Assay [9] deals with UO-31 renal.
For assay [10], the system named is SNB-78 CNS.
The subject of assay [11] is DU-145 prostate.
Assay [12] has as its system MDA-N.

`C=CC[C@@]1(C#N)C[C@H](C[C@]2(C#N)C[C@H](CCl)OC(C)(C)O2)OC(C)(C)O1`: the TGI in [1], in assay [2], in assay [3], in [4], in assay [5] and in assay [6] was more than 100 µM in each case. The TGI in assay [7], in assay [8] and in assay [9] was more than 100 µM in each case.
Turning to `CC1=NN(C(=O)c2ccccc2)C(=O)C1N=Nc1ccccc1C(=O)O` (stereo not given), the TGI is more than 100 µM in [1]; more than 100 µM in assay [2]; more than 100 µM in assay [3]; more than 100 µM in assay [5]; more than 40.6 µM in [6]; more than 100 µM in assay [7]. Further, the TGI in [8] is more than 100 µM; in [9] it was 21.8 µM.
Consider `CCOC(=O)CC(=Nc1cc(C)on1)N(CC)CC`, for which the TGI in assay [1], in [2], in assay [4], in [5], in assay [6] and in assay [7] was more than 100 µM in each case. For the same molecule, the TGI in assay [8], in assay [10] and in assay [9] was more than 100 µM each time.
Regarding `COc1ccc2c(c1)Cc1c-2[nH]c2cc3c(cc2c1=O)OCO3`, the TGI in assay [1] is 24.7 µM; in assay [2], more than 100 µM; in assay [3] it was 58.2 µM; in [4] it was 51.2 µM; in [5], 42.8 µM; in [6], 48.2 µM. Besides, the TGI in assay [7] was 35.8 µM; in assay [8], 21.8 µM; in assay [10], more than 100 µM; in [9], 89 µM.
With `COC(=O)C[C@](O)(CCC(C)(C)O)C(=O)O[C@@H]1C(OC)=C[C@]23CCCN2CCc2cc4c(cc2[C@H]13)OCO4`, the TGI in assay [1] amounted to 0.131 µM; in assay [2], 0.43 µM; in assay [3], 0.756 µM; in [5], 0.109 µM; in [6], 0.323 µM; in assay [7], 0.701 µM. Also, the TGI in assay [8] worked out at 0.407 µM; in assay [10], 1.04 µM; in assay [9] it was 7.01 µM.
For `CN(C)C(=S)/N=c1\ssc(=S)n1Cc1ccccn1`, the TGI in assay [2] was more than 100 µM; in assay [3], more than 100 µM; in assay [4] it was more than 48.2 µM; in assay [5], 22.7 µM; in assay [6], more than 100 µM; in [7], more than 25.9 µM. Moreover, the TGI is 5.98 µM in assay [8], more than 100 µM in assay [10] and more than 100 µM in assay [9].
For `CCOC(=O)C1CCn2c(nc3c(=O)n(C)c(=O)n(C)c32)S1` (stereo not given), the TGI in assay [1], in assay [2], in assay [3], in assay [4], in [5] and in assay [6] was more than 100 µM each time. The TGI in assay [7], in assay [8] and in assay [10] was more than 100 µM in each case.
As to `Cc1ccc(C(=O)NC(C)C)cc1N=NN(C)C`, the TGI in [1], in assay [2], in assay [4], in assay [6], in [8] and in assay [10] was more than 100 µM each time. For the same molecule, the TGI in [9] is more than 100 µM.
Take `Cc1cc(C)c(N)c(C)c1N`: the TGI in assay [1], in [2], in [3], in [4], in assay [5] and in [6] was more than 100 µM each time. Moreover, the TGI in assay [7], in assay [8], in assay [10] and in [9] was more than 100 µM each time.
Regarding `O=C(Cc1ccccc1)NN1C(=O)C(Cl)C1c1ccccc1` (stereo not given), the TGI in [2] was more than 100 µM; in assay [3], more than 100 µM; in assay [4], more than 100 µM; in [5] it was more than 100 µM; in assay [6], more than 100 µM; in assay [7], 52.8 µM. Further, the TGI in assay [8], in assay [10] and in assay [9] was more than 100 µM each time.
On to `Oc1cccc2nc3cc(CN4CCOCC4)c(CN4CCOCC4)cc3nc12`, for which the TGI in assay [1] was more than 100 µM; in assay [2] it was more than 100 µM; in assay [3], more than 100 µM; in [4], 38.9 µM; in assay [5], more than 100 µM; in [6], more than 100 µM. The TGI in assay [8], in [10] and in [9] was more than 100 µM in each case.
For the molecule `CC[S+](C)c1ccc(-c2c3nc(c(-c4ccc([S+](C)CC)cc4)c4ccc([nH]4)c(-c4ccc([S+](C)CC)cc4)c4nc(c(-c5ccc([S+](C)CC)cc5)c5ccc2[nH]5)C=C4)C=C3)cc1` (stereo not given), the TGI is more than 100 µM in assay [1]; 94.8 µM in assay [2]; more than 100 µM in [4]; more than 100 µM in assay [5]; more than 100 µM in [6]; 41 µM in assay [7]. The TGI in [8] was 77.5 µM; in assay [10] it was more than 100 µM.
For the molecule `CCc1c(-c2coc(CC/C(C)=C/c3ccccc3)n2)oc(OC)c(C)c1=O`, the TGI in assay [1] is more than 54.7 µM; in assay [2], more than 100 µM; in assay [3], more than 100 µM; in assay [4], more than 61.4 µM; in assay [5], more than 100 µM; in [6], more than 95.4 µM. Also, the TGI in assay [7] was more than 100 µM; in [8], more than 100 µM; in assay [10], more than 100 µM; in assay [9], more than 53.1 µM.
For `CCOC(=O)CCc1c(C)c2c(O)cc(O)cc2oc1=O`, the TGI in [1], in [2], in assay [3], in [5], in assay [6] and in assay [7] was more than 100 µM throughout. In addition, the TGI in assay [8], in assay [10] and in [9] was more than 100 µM each time.
In the case of `[N-]=[N+]=NC(c1cn(C2CC(O)C(CO)O2)c(=O)[nH]c1=O)C(I)I` (stereo not given), the TGI in assay [1], in assay [2], in assay [3], in assay [4], in assay [5] and in assay [6] was more than 100 µM throughout. The TGI in assay [7], in assay [8], in [10] and in assay [9] was more than 100 µM throughout.
As to `CC1(C)N=C(/C(C#N)=[N+](/[O-])C(=O)c2ccccc2)C(C)(C)N1O`, the TGI in assay [11], in assay [2], in assay [4], in assay [5], in assay [12] and in assay [6] was more than 100 µM each time. For the same molecule, the TGI in assay [7], in assay [8] and in [9] was more than 100 µM in each case.
As to `CC1=NN(c2cccc(Cl)c2)C2(C1)SCC(=O)N2c1nc2ccccc2s1` (stereo not given), the TGI is more than 100 µM in assay [11]; more than 100 µM in assay [2]; 86.5 µM in assay [4]; more than 100 µM in assay [5]; more than 100 µM in assay [12]; 84.5 µM in [6]. Also, the TGI worked out at 38.6 µM in assay [7], 49.2 µM in assay [8] and 57.4 µM in [9].
Consider `COc1cc(C(c2cc(OC)c(OC)c(OC)c2)N2C(=O)CCC2C(=O)O)cc(OC)c1OC` (stereo not given), for which the TGI in assay [11], in [2], in assay [4], in [5], in assay [12] and in assay [6] was more than 100 µM in each case. The TGI in assay [7], in [8] and in [9] was more than 100 µM in each case.
As for `CN(C)Cc1cc(C(=O)/C=C/c2c(F)cccc2Cl)cc(CN(C)C)c1O`, the TGI is 21.3 µM in assay [11]; 28.7 µM in assay [2]; 30 µM in assay [4]; 25.7 µM in assay [5]; 29.1 µM in assay [12]; 38.3 µM in [6]. The results for the TGI in assay [7], in [8] and in [9] were 49.6 µM, 35.5 µM and 18.7 µM, respectively.
As to `Nc1nc(SCc2ccccc2[N+](=O)[O-])c2[nH]cnc2n1`, the TGI in assay [1] is more than 100 µM; in assay [11] it was more than 100 µM; in assay [2], more than 100 µM; in assay [4], more than 100 µM; in [5], more than 67.4 µM; in assay [12], more than 100 µM. In addition, the TGI is more than 100 µM in [6]; more than 100 µM in [7]; 90.3 µM in [8]; more than 100 µM in assay [10]; more than 100 µM in assay [9].
On to `COc1cc(OC)c(NC2=NCCO2)cc1Cl`, for which the TGI in assay [11] is more than 100 µM; in assay [2], more than 100 µM; in [4], 97.8 µM; in assay [5] it was more than 100 µM; in assay [12], 32.3 µM; in assay [6] it was 58.1 µM. Besides, the values for the TGI in assay [7], in assay [8] and in assay [9] were more than 100 µM, 36.3 µM and more than 100 µM, respectively.
`Cc1ccc(N2C(=O)C(O)=C(C(=O)C(C)(C)C)C2c2ccc([N+](=O)[O-])cc2)cc1` (stereo not given): the TGI in assay [11] is more than 100 µM; in [2], 67.1 µM; in assay [4], 46.2 µM; in assay [5], 46 µM; in assay [12], 69.2 µM; in assay [6] it was 35.2 µM. Also, the TGI in [7] stood at 49.4 µM; in assay [8], 58.5 µM; in [9], 89.3 µM.

(Values after PubChem BioAssay (NCI).)
